From patent US11884627B2, “Compounds and compositions for treating conditions associated with LPA receptor activity” (Lhotse Bio, Inc., priority 2022, dated 2024)
Where two headings read alike, the source gives them in different places.

Target: T1, human LPA1 (Homo sapiens, UniProt Q92633)
T1 construct: expressed in transfected cells; host or cells: CHO-K1
Experiment: In vitro LPA1 calcium flux antagonist assay - Bioduro protocol
Type: cell-based
Details: CHO-K1 cells overexpressing human LPA1 and G15a, LPA challenge at EC80
Experimental: In Vitro LPA1 Calcium Flux Antagonist Assay—Bioduro Protocol
CHO-K1 cells overexpressing human LPA1 and G15a were seeded at a total volume of 20 μL (15000 cells/well) into Matrigel pre-coated 384-well plates (corning −3764) and incubated at 37° C. After overnight incubation, the cells were serum starved for 4 h. Assays were performed in dye loading buffer containing 1× Fluo-8 AM (AAT Bioquest, 21080) and 2.5 mM probenecid (Thermo Fisher, 36400) in HBSS/20 mM Hepes. After cell starvation, the medium was replaced with 20 μL of dye loading buffer and incubated at 37° C., for 30 min. Then 5 μL of 5× compound titrated in dye loading buffer was added to the cells and incubated for 30 min followed by LPA challenge at EC80. Calcium mobilization was measured on a FLIPR Tetra (MSD). For LPA EC80 determination, starved cells were incubated with 20 μL of dye loading buffer for 1 h, then 5 μL of 5×LPA titrated in dye loading buffer was added to the cells. Calcium signals induced by LPA was monitors on a FLIPR.
Percentage inhibition is calculated using the following formula: % Inhibition=100%×(1−(mean RFU of test sample−mean RFU of DMSO)/(mean RFU of LPA control−mean RFU of DMSO)).
Table B3 and Table B4 show the biological activity of compounds in in vitro LPA1 Calcium flux antagonist assay—Bioduro protocol.

[1] = calcium mobilization on FLIPR Tetra, read-out: IC50
[2] = Table B3, read-out: Activity (IC50 class)

T1 sequence (Q92633 whole entry): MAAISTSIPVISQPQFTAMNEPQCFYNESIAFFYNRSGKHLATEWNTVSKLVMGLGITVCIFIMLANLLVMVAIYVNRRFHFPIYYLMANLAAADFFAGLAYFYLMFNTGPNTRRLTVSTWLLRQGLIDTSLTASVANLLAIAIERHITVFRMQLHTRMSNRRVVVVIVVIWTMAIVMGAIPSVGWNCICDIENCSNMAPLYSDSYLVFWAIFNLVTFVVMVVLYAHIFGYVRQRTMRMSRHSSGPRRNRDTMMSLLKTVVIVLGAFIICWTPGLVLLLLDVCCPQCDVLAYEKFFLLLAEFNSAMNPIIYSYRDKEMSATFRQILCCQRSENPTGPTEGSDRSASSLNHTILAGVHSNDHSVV

For COc1cc(-c2ccc(NC3(C(=O)O)CCOCC3)cc2COC2CC3CC3C2)cc(OC)c1C (centres unmarked) [Compound 182, 4-((2-((bicyclo[3.1.0]hexan-3-yloxy)methyl)-3′,5′-dimethoxy-4′-methyl-[1,1′-biphenyl]-4-yl)amino)tetrahydro-2H-pyran-4-carboxylic acid], the IC50 [1] was 9.7 nM and the IC50 [2] was < 100 nM.

In the case of COc1cc(-c2c(Cl)cc(NC3(C(=O)O)CCOCC3)cc2COC2CCCC2)cc(OC)c1C [Compound 184], the IC50 [1] is reported as 33.2 nM and the IC50 [2] is reported as < 100 nM.

COc1cc(OC)cc(-c2c(C)cc(NC3(C(=O)O)Cc4ccccc4C3)cc2COC2CCCC2)c1 [Compound 188] was tested, and the IC50 [1] was 2730 nM and the IC50 [2] was > 1000 nM.

COc1c(C(C)=O)ccc(-c2ccc(NC3(C(=O)O)CCOCC3)cc2COC2CCCC2)c1C [Compound 189] was tested, and the IC50 [1] was 52.5 nM and the IC50 [2] was < 100 nM.

In the case of COc1cc(-c2ccc(OC3(C(=O)O)CCOCC3)cc2COC2CCCC2)c(C)c(OC)c1C [Compound 191], the IC50 [1] is reported as 34.3 nM and the IC50 [2] is reported as < 100 nM.

For COc1cc(-c2ccc(OC3(C(=O)O)CCOCC3)cc2COC2CCCC2)c(Cl)c(OC)c1C [Compound 192, 4-((2′-chloro-2-((cyclopentyloxy)methyl)-3′,5′-dimethoxy-4′-methyl-[1,1′-biphenyl]-4-yl)oxy)tetrahydro-2H-pyran-4-carboxylic acid], the IC50 [1] was 15.1 nM and the IC50 [2] was < 100 nM.

COc1cc(-c2ccc(NC3(C(=O)O)CCOCC3)cc2COC2CCCC2)c2c(c1C)OCC2 [Compound 193, 4-((3-((cyclopentyloxy)methyl)-4-(6-methoxy-7-methyl-2,3-dihydrobenzofuran-4-yl)phenyl)amino)tetrahydro-2H-pyran-4-carboxylic acid] was tested, and the IC50 [1] was 31.9 nM and the IC50 [2] was < 100 nM.

For CCc1c(-c2ccc(OC3(C(=O)O)CCOCC3)cc2COC2CCCC2)cc(OC)c(C)c1OC [Compound 194], the IC50 [1] was 79.8 nM and the IC50 [2] was < 100 nM.

For COC(=O)N1CC(Nc2ccc(-c3cc(OC)c(C)c(OC)c3C)c(COC3CCCC3)c2)(C(=O)O)C1 [Compound 195], the IC50 [1] was 760 nM and the IC50 [2] was > 1000 nM.

With COc1cc(-c2ccc(NC3(C(=O)O)CC(OC)C3)cc2COC2CCCC2)c(C)c(OC)c1C (centres unmarked) [Compound 196] the IC50 [1] was 30.1 nM and the IC50 [2] was < 100 nM.

With COc1cc(-c2ccc(NC3(C(=O)O)CC(OC)C3)cc2COC2CCCC2)c(C)c(OC)c1C (centres unmarked) [Compound 197] the IC50 [1] was 12.5 nM and the IC50 [2] was < 100 nM.

Work on COc1cc2c(c(-c3ccc(NC4(C(=O)O)CCOCC4)cc3COC3CCCC3)c1)CCO2 [Compound 198] yielded an IC50 [1] of 232 nM and an IC50 [2] of 100 to 1000 nM.

In the case of COc1cc2c(c(-c3ccc(NC4(C(=O)O)CCOCC4)cc3COC3CCCC3)c1)OCO2 [Compound 199], the IC50 [1] is reported as 3210 nM and the IC50 [2] is reported as > 1000 nM.

With COc1cc(OC)cc(-c2ccc(NC3(C(=O)O)CCOCC3)cc2CCN2CCCC2=O)c1 [Compound 202] the IC50 [1] was > 10000 nM and the IC50 [2] was > 1000 nM.

In the case of CCc1c(-c2ccc(NC3(C(=O)O)CCOCC3)cc2COC2CCCC2)cc(OC)c(C)c1OC [Compound 203], the IC50 [1] is reported as 26 nM and the IC50 [2] is reported as < 100 nM.

In the case of COc1cc(-c2ccc(NC3(C(=O)O)CCC(OC)CC3)cc2COC2CCCC2)cc(OC)c1C (centres unmarked) [Compound 205], the IC50 [1] is reported as 1260 nM and the IC50 [2] is reported as > 1000 nM.

COc1cc(-c2ccc(NC3(C(=O)O)CCC(O)CC3)cc2COC2CCCC2)cc(OC)c1C (centres unmarked) [Compound 206] was tested, and the IC50 [1] was 476 nM and the IC50 [2] was 100 to 1000 nM.

COc1cc(-c2ccc(NC3(C(=O)O)CCOCC3)cc2COC2CCCC2)c(Cl)c(OC)n1 [Compound 207, 4-((4-(3-chloro-2,6-dimethoxypyridin-4-yl)-3-((cyclopentyloxy)methyl)phenyl)amino)tetrahydro-2H-pyran-4-carboxylic acid] was tested, and the IC50 [1] was 30.4 nM and the IC50 [2] was < 100 nM.

For COC(=O)NC1CCC(Nc2ccc(-c3cc(OC)c(C)c(OC)c3)c(COC3CCCC3)c2)(C(=O)O)CC1 (centres unmarked) [Compound 208], the IC50 [1] was 56.4 nM and the IC50 [2] was < 100 nM.

With COc1cc(-c2ccc(OC3(C(=O)O)CCOCC3)cc2COC2CCCC2)c(F)c(OC)c1C [Compound 209, 4-((2-((cyclopentyloxy)methyl)-2′-fluoro-3′,5′-dimethoxy-4′-methyl-[1,1′-biphenyl]-4-yl)oxy)tetrahydro-2H-pyran-4-carboxylic acid] the IC50 [1] was 15.5 nM and the IC50 [2] was < 100 nM.

For COC(=O)N1CCCC(Nc2cc(C)c(-c3cc(OC)cc(OC)c3)c(COC3CCCC3)c2)(C(=O)O)C1 (centres unmarked) [Compound 210], the IC50 [1] was > 10000 nM and the IC50 [2] was > 1000 nM.

COC(=O)N1CCCC(Nc2cc(C)c(-c3cc(OC)cc(OC)c3)c(COC3CCCC3)c2)(C(=O)O)C1 (centres unmarked) [Compound 211] was tested, and the IC50 [1] was > 10000 nM and the IC50 [2] was > 1000 nM.

In the case of COc1cc(-c2ccc(NC3(C(=O)O)CCOCC3)cc2COC2(C)CCCC2)c(C)c(OC)c1C [Compound 212], the IC50 [1] is reported as 11.2 nM and the IC50 [2] is reported as < 100 nM.

For CCOC1CC(Nc2ccc(-c3cc(OC)c(C)c(OC)c3C)c(COC3CCCC3)c2)(C(=O)O)C1 (centres unmarked) [Compound 213], the IC50 [1] was 58.7 nM and the IC50 [2] was < 100 nM.

In the case of CCOC1CC(Nc2ccc(-c3cc(OC)c(C)c(OC)c3C)c(COC3CCCC3)c2)(C(=O)O)C1 (centres unmarked) [Compound 214], the IC50 [1] is reported as 58.9 nM and the IC50 [2] is reported as < 100 nM.

COc1cc(-c2ccc(NC3(C(=O)O)CCOCC3)cc2COC2CCCC2)c(C(F)F)c(OC)c1C [Compound 215] was tested, and the IC50 [1] was 10.8 nM and the IC50 [2] was < 100 nM.

For COc1cc(-c2ccc(NC3(C(=O)O)CCOCC3)cc2COC2CCCC2)cc(O)n1 [Compound 218], the IC50 [1] was > 10000 nM and the IC50 [2] was > 1000 nM.

In the case of COc1cc(-c2ccc(NC3(C(=O)O)CCOCC3)cc2COC2CCC3(CC3)C2)cc(OC)c1C (centres unmarked) [Compound 219], the IC50 [1] is reported as 58 nM and the IC50 [2] is reported as < 100 nM.

COc1cc(-c2ccc(NC3(C(=O)O)CCOCC3)cc2COC2CCCC2)c(OC)c(OC)c1C [Compound 220] was tested, and the IC50 [1] was 81.6 nM and the IC50 [2] was 100 to 1000 nM.

Compound COc1cc(OC)c(F)c(-c2ccc(OC3(C(=O)O)CCOCC3)cc2COC2CCCC2)c1 [Compound 222] has an IC50 [1] of 167 nM and an IC50 [2] of 100 to 1000 nM.

In the case of COc1cc(-c2ccc(NC3(C(=O)O)C[C@@H](C)O[C@@H](C)C3)cc2COC2CCCC2)c(F)c(OC)c1C (stereo partly drawn) [Compound 225, (2R,6S)-4-((2-((cyclopentyloxy)methyl)-2′-fluoro-3′,5′-dimethoxy-4′-methyl-[1,1′-biphenyl]-4-yl)amino)-2,6-dimethyltetrahydro-2H-pyran-4-carboxylic acid], the IC50 [1] is reported as 320 nM and the IC50 [2] is reported as 100 to 1000 nM.

For COc1cc(OC)c(F)c(-c2ccc(NC3(C(=O)O)CCOCC3)cc2COC2CCCC2)c1 [Compound 226], the IC50 [1] was 22.2 nM and the IC50 [2] was < 100 nM.

In the case of COc1cc(-c2ccc(NC3(C(=O)O)CCOCC3)c(F)c2COC2CCCC2)c(F)c(OC)c1C [Compound 227], the IC50 [1] is reported as 25 nM and the IC50 [2] is reported as < 100 nM.

For COc1cc(OC)c(F)c(-c2ccc(NC3(C(=O)O)CCOCC3)cc2CCC2CCCC2)c1 [Compound 228], the IC50 [1] was 2.63 nM and the IC50 [2] was < 100 nM.

For CCOc1cccc(-c2ccc(NC3(C(=O)O)CCOCC3)cc2COC2CCCC2)c1C [Compound 229, 4-((2-((cyclopentyloxy)methyl)-3′-ethoxy-2′-methyl-[1,1′-biphenyl]-4-yl)amino)tetrahydro-2H-pyran-4-carboxylic acid], the IC50 [1] was 5.28 nM and the IC50 [2] was < 100 nM.

COc1cc(-c2ccc(OC3(C(=O)O)CCOCC3)cc2COC2CCCC2)c(Cl)c(OC)n1 [Compound 230] was tested, and the IC50 [1] was 139 nM and the IC50 [2] was 100 to 1000 nM.

COc1cc(-c2ccc(OCC3(C(=O)O)CCOCC3)cc2COC2CCCC2)c(F)c(OC)c1C [Compound 232] showed an IC50 [1] of 756 nM and an IC50 [2] of 100 to 1000 nM.
